Results taken from US20130217702A1 (Richter Gedeon Nyrt., priority 2010, published 2013).

Key:
[1] = target: T1, recombinant human B1 receptors (Homo sapiens, UniProt P46663); assay: Functional assay: antagonist potency by cytosolic calcium measurement (plate reader fluorimeter) in CHO-B1 cells, agonist LysDABK; type: cell-based; conditions: CHO-B1 cells, inhibition of LysDABK (EC80)-evoked [Ca2+]i elevation; read-out: B1 func.
T1 construct: host or cells: CHO (CHO-B1)
T1 sequence (P46663 1-353): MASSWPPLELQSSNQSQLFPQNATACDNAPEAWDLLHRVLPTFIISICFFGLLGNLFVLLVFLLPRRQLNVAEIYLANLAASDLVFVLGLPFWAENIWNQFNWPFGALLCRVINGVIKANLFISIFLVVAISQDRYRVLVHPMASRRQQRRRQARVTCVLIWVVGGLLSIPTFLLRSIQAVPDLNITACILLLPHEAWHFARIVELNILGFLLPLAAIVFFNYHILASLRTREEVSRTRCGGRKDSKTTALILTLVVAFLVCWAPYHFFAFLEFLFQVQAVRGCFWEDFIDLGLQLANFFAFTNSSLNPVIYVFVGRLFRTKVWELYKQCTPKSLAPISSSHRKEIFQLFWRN
How it was run: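 IC50 is the concentration giving half-maximal inhibition of the LysDABK (EC80) calcium response, fitted from at least three experiments. CHO cells stably expressing human B1 were dye-loaded, exposed to compound for 20-25 min, then read by fluo-4 fluorescence (ΔF/F) at 37 °C.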

[2] = target: T2, human recombinant bradykinin B1 receptor (Homo sapiens, UniProt P46663); assay: Human recombinant bradykinin B1 receptor competitive radioligand binding; conditions: hB1 expressed in CHO cells, [3H]-[Des-Arg10] Kallidin radioligand; read-out: B1 binding
T2 construct: host or cells: CHO cells, clone hB1-A5
T2 sequence (P46663 1-353): T1 sequence (P46663 1-353)
How it was run: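 Membranes from CHO cells expressing hB1 (20 μg protein/tube) incubated 15 min at 25° C. with [3,4-prolyl-3,4-^3H(N)]-[Des-Arg^10] Kallidin; nonspecific binding defined with 10 μM Lys-des-Arg^9-Bradykinin. Bound label collected by filtration and counted. IC50 from ≥7-point curves in triplicate; Ki by Cheng-Prusoff.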

Row | SMILES | IC50 [1] | Ki [2]
1 | COC(=O)c1c(Cl)c2ccccc2n1-c1ccc(CNC(=O)C2(NC(=O)c3cc(OC)no3)CC2)c(F)c1 [Example 55, 3-Chloro-1-{3-fluoro-4-[({1-[(3-methoxy-isoxazole-5-carbonyl)-amino]-cyclo-propanecarbonyl}-amino)-methyl]-phenyl}-1H-indole-2-carboxylic acid methyl ester] | < 20 nM | < 20 nM
2 | COc1ccc2c(c1)c(Cl)c(-c1noc(C)n1)n2-c1ccc(CNC(=O)C2(NC(=O)c3cnc(C)cn3)CC2)cc1 [Example 129, 5-Methyl-pyrazine-2-carboxylic acid (1-{4-[3-chloro-5-methoxy-2-(5-methyl-[1,2,4]oxadiazol-3-yl)-indol-1-yl]-benzylcarbamoyl}-cyclopropyl)-amide] | < 20 nM | < 20 nM
3 | Cc1cnc(C(=O)NC2(C(=O)NCc3ccc(-n4c(-c5noc(C)n5)c(Cl)c5ccccc54)cc3F)CC2)cn1 [Example 106, 5-Methyl-pyrazine-2-carboxylic acid (1-{4-[3-chloro-2-(5-methyl-[1,2,4]oxadiazol-3-yl)-indol-1-yl]-2-fluoro-benzylcarbamoyl}-cyclopropyl)-amide] | < 20 nM | < 20 nM
4 | Cc1cccc(C(=O)NC2(C(=O)NCc3ccc(-n4c(-c5noc(C)n5)c(Cl)c5ccccc54)cc3)CC2)c1 [Example 179, N-(1-{4-[3-Chloro-2-(5-methyl-[1,2,4]oxadiazol-3-yl)-indol-1-yl]-benzylcarbamoyl}-cyclopropyl)-3-methyl-benzamide] | 20 to 100 nM | < 20 nM
5 | COc1cc(C(=O)NC2(C(=O)NCc3ccc(-n4c(-c5noc(C)n5)c(C)c5cc(F)ccc54)cc3)CC2)on1 [Example 200, 3-Methoxy-isoxazole-5-carboxylic acid (1-{4-[5-fluoro-3-methyl-2-(5-methyl-[1,2,4]oxadiazol-3-yl)-indol-1-yl]-benzylcarbamoyl}-cyclopropyl)-amide] | < 20 nM | < 20 nM
6 | Cc1nc(-c2c(Cl)c3ccccc3n2-c2ccc([C@@H](C)NC(=O)C3(NC(=O)C(F)(F)F)CC3)cc2)no1 [Example 40, (R)-1-(2,2,2-Trifluoro-acetylamino)-cyclopropanecarboxylic acid (1-{4-[3-chloro-2-(5-methyl-[1,2,4]oxadiazol-3-yl)-indol-1-yl]-phenyl}-ethyl)-amide] | < 20 nM | < 20 nM
7 | Cc1nc(-c2c(Cl)c3ccccc3n2-c2ccc(CNC(=O)C3(NC(=O)c4cncnc4)CC3)cc2)no1 [Example 166, Pyrimidine-5-carboxylic acid (1-{4-[3-chloro-2-(5-methyl-[1,2,4]oxadiazol-3-yl)indol-1-yl]-benzylcarbamoyl}-cyclopropyl)-amide] | < 20 nM | < 20 nM
8 | Cc1nc(-c2c(Cl)c3ccccc3n2-c2ccc(CNC(=O)C3(NC(=O)c4cccc(C(F)(F)F)c4F)CC3)cc2)no1 [Example 92, N-(1-{4-[3-Chloro-2-(5-methyl-[1,2,4]oxadiazol-3-yl)-indol-1-yl]-benzylcarbamoyl}-cyclopropyl)-2-fluoro-3-trifluoromethyl-benzamide] | < 20 nM | < 20 nM
9 | COc1cc(C(=O)NC2(C(=O)NCc3ccc(-n4c(-c5nnnn5C)c(Cl)c5ccccc54)cc3)CC2)on1 [Example 7, 3-Methoxy-isoxazole-5-carboxylic acid (1-{4-[3-chloro-2-(1-methyl-1H-tetrazol-5-yl)-indol-1-yl]-benzylcarbamoyl}-cyclopropyl)-amide] | < 20 nM | < 20 nM
10 | Cc1nc(-c2c(Cl)c3ccccc3n2-c2ccc(CNC(=O)C3(NC(=O)c4ccc(F)nc4)CC3)cc2)no1 [Example 99, N-(1-{4-[3-Chloro-2-(5-methyl-[1,2,4]oxadiazol-3-yl)-indol-1-yl]-benzylcarbamoyl}-cyclopropyl)-6-fluoro-nicotinamide] | < 20 nM | < 20 nM
11 | Cc1ccc(C(=O)NC2(C(=O)NCc3ccc(-n4c(-c5noc(C)n5)c(Cl)c5ccccc54)cc3)CC2)cn1 [Example 154, N-(1-{4-[3-Chloro-2-(5-methyl-[1,2,4]oxadiazol-3-yl)-indol-1-yl]-benzylcarbamoyl}-cyclopropyl)-6-methyl-nicotinamide] | < 20 nM | < 20 nM
12 | COc1cc(C(=O)NC2(C(=O)NCc3ccc(-n4c(-c5nnn(C)n5)c(Cl)c5cc(F)ccc54)cc3F)CC2)on1 [Example 20, 3-Methoxy-isoxazole-5-carboxylic acid (1-{4-[3-chloro-5-fluoro-2-(2-methyl-2H-tetrazol-5-yl)-indol-1-yl]-2-fluoro-benzylcarbamoyl}-cyclopropyl)-amide] | < 20 nM | < 20 nM
13 | COc1cc(C(=O)NC2(C(=O)NCc3ccc(-n4c(-c5noc(C)n5)cc5cc(F)ccc54)cc3)CC2)on1 [Example 47, 3-Methoxy-isoxazole-5-carboxylic acid (1-{4-[5-fluoro-2-(5-methyl-[1,2,4]oxadiazol-3-yl)-indol-1-yl]-benzylcarbamoyl}-cyclopropyl)-amide] | < 20 nM | < 20 nM
14 | Cc1nc(-c2c(Cl)c3ccccc3n2-c2ccc(CNC(=O)C3(NC(=O)c4cc(C5CC5)on4)CC3)c(F)c2)no1 [Example 110, 5-Cyclopropyl-isoxazole-3-carboxylic acid (1-{4-[3-chloro-2-(5-methyl-[1,2,4]oxadiazol-3-yl)-indol-1-yl]-2-fluoro-benzylcarbamoyl}-cyclopropyl)-amide] | < 20 nM | < 20 nM
15 | COc1cc(C(=O)NC2(C(=O)NCc3ccc(-n4c(-c5nc(C)no5)c(Cl)c5ccccc54)cc3)CC2)on1 [Example 193, 3-Methoxy-isoxazole-5-carboxylic acid (1-{4-[3-chloro-2-(3-methyl-[1,2,4]oxadiazol-5-yl)-indol-1-yl]-benzylcarbamoyl}-cyclopropyl)-amide] | < 20 nM | < 20 nM
16 | COc1cc(C(=O)NC2(C(=O)NCc3ccc(-n4c(C(=O)N(C)C)c(Cl)c5ccccc54)cc3)CC2)on1 [Example 35, 3-Chloro-1-{4-[({1-[(3-methoxy-isoxazole-5-carbonyl)-amino]-cyclopropane-carbonyl}-amino)-methyl]-phenyl}-1H-indole-2-carboxylic acid dimethylamide] | 20 to 100 nM | < 20 nM
17 | COc1ccc2c(c1)cc(-c1nc(C)no1)n2-c1ccc(CNC(=O)C2(NC(=O)c3cc(OC)no3)CC2)cc1 [Example 80, 3-Methoxy-isoxazole-5-carboxylic acid (1-{4-[5-methoxy-2-(3-methyl-[1,2,4]oxadiazol-5-yl)-indol-1-yl]-benzylcarbamoyl}-cyclopropyl)-amide] | < 20 nM | < 20 nM
18 | Cn1nnc(-c2c(Cl)c3ccccc3n2-c2ccc(CNC(=O)C3(NC(=O)CC(F)(F)F)CC3)cc2)n1 [Example 29, 1-(3,3,3,-Trifluoro-propionylamino)-cyclopropanecarboxylic acid 4-[3-chloro-2-(2-methyl-2H-tetrazol-5-yl)-indol-1-yl]-benzylamide] | < 20 nM | < 20 nM
19 | Cc1noc(-c2cc3cc(F)ccc3n2-c2ccc(CNC(=O)C3(NC(=O)c4cncc(C(F)(F)F)c4)CC3)cc2)n1 [Example 102, N-(1-{4-[5-Fluoro-2-(3-methyl-[1,2,4]oxadiazol-5-yl)-indol-1-yl]-benzylcarbamoyl}-cyclopropyl)-5-trifluoromethyl-nicotinamide] | < 20 nM | < 20 nM
20 | Cc1nc(-c2c(Cl)c3cc(Cl)ccc3n2-c2ccc(CNC(=O)C3(NC(=O)c4ccnc(F)c4)CC3)cc2)no1 [Example 74, N-(1-{4-[3,5-Dichloro-2-(5-methyl-[1,2,4]oxadiazol-3-yl)-indol-1-yl]-benzylcarbamoyl}-cyclopropyl)-2-fluoro-isonicotinamide] | < 20 nM | < 20 nM
21 | Cc1nc(-c2c(Cl)c3cc(F)ccc3n2-c2ccc(CNC(=O)C3(NC(=O)c4cccc(F)c4)CC3)cc2)no1 [Example 86, N-(1-{4-[3-Chloro-5-fluoro-2-(5-methyl-[1,2,4]oxadiazol-3-yl)-indol-1-yl]-benzylcarbamoyl}-cyclopropyl)-3-fluoro-benzamide] | < 20 nM | < 20 nM
22 | COc1ccc2c(c1)c(Cl)c(-c1noc(C)n1)n2-c1ccc(CNC(=O)C2(NC(=O)C(F)(F)F)CC2)cc1 [Example 63, 1-(2,2,2-Trifluoro-acetylamino)-cyclopropanecarboxylic acid 4-[3-chloro-5-methoxy-2-(5-methyl-[1,2,4]oxadiazol-3-yl)-indol-1-yl]-benzylamide] | < 20 nM | < 20 nM
23 | COc1cc(C(=O)NC2(C(=O)NCc3ccc(-n4c(-c5noc(C)n5)c(Cl)c5cc(Cl)ccc54)cc3)CC2)on1 [Example 66, 3-Methoxy-isoxazole-5-carboxylic acid (1-{4-[3,5-dichloro-2-(5-methyl-[1,2,4]oxadiazol-3-yl)-indol-1-yl]-benzylcarbamoyl}-cyclopropyl)-amide] | < 20 nM | < 20 nM
